Values of other authors in patent US20200077661A1, “METHOD AND "IDEPS" COMPOSITION FOR DESTROYING MICROORGANISMS IN A SESSILE STATE” (IDEPS GMBH, priority 2016, published 2020).

Tested on: coagulase-negative staphylococci

varnerin
destruction of the exopolymeric matrix (16-128 μg/ml varnerin for 10 μg of biofilm, incubation at 37° C. for 24 hours): partial destruction
bacterial cells die (16-128 μg/ml varnerin for 10 μg of biofilm, incubation at 37° C. for 24 hours, biofilm formed within 24 hours): up to 30%
bacteria in the young biofilm not eliminated (young biofilm (24 hours old)): up to 70%
